The results in this text go back to publication PMC6835155, “Lessons from LIMK1 enzymology and their impact on inhibitor design” (Biochemical Journal, 2019).

Where a name gives a salt, the structure may show the parent alone. Read-outs that look alike come from different tables or passages of the source.

Assay [1] addresses T1, LIMK1KD (Homo sapiens, UniProt P53667).
T1 construct: His6 (N, cleaved yes); made in house; host or cells: baculovirus; Sf9 for virus, TriEx insect cells for expression
The assay is described as follows: Differential (dynamic) scanning fluorimetry (DSF) assay, LIMK1KD. As to conditions: 2 µM LIMK1KD, compound 10 µM, single shot; for ΔTm at 10 µM: read-out: TM Shift LIMK1 (K). The format is binding.

In assay [2] the target is T2, LIMK2KD (Homo sapiens, UniProt P53671).
T2 construct: The cDNA coding for LIMK2 residues 330 to 632 was PCR amplified; His6 (N, cleaved yes); made in house; host or cells: baculovirus; Sf9 for virus, TriEx insect cells for expression
T2 sequence (P53671 330-632): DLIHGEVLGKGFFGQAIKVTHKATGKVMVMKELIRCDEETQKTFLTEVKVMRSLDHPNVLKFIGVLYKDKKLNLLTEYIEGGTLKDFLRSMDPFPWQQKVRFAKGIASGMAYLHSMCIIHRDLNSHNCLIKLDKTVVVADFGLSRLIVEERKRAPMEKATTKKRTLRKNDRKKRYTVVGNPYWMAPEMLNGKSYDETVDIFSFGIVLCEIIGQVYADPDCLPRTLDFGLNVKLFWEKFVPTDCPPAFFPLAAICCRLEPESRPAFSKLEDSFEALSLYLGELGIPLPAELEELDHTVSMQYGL
The assay is described as follows: Differential (dynamic) scanning fluorimetry (DSF) assay, LIMK2KD. The format is binding.

[3] abbreviates: LIMK2KD, compound 10 µM, single shot, read-out: TM Shift LIMK2 (K).
[4] abbreviates: LIMK2KD, compound 10 µM, single shot, 10 µM.
Setting [5] is: LIMK2KD, compound 10 µM, single shot.

T1 sequence (P53667 330-637): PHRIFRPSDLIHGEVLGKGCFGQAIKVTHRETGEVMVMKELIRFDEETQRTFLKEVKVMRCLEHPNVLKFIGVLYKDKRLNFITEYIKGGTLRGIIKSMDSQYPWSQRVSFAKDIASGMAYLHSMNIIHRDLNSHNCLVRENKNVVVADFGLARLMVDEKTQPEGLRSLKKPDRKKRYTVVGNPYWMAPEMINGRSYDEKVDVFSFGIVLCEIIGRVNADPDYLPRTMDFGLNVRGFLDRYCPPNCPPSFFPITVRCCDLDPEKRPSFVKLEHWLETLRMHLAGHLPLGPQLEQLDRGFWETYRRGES

For the compound `CN1CCN(CCOc2cc(OC3CCOCC3)c3c(Nc4c(Cl)ccc5c4OCO5)ncnc3c2)CC1` [Saracatinib (AZD0530), Saracatinib], the ΔTm at 10 µM in assay [1] is 1.2 °C; in assay [2] (setting [3]), 0.8 °C.
Consider `CC[C@H](CO)Nc1nc(NCc2ccccc2)c2ncn(C(C)C)c2n1` [Seliciclib], for which the “TM Shift LIMK1 (K)” value in assay [1] is reported as 0.1 K; in assay [1] (listed as Roscovitine (Seliciclib,CYC202)) it was -0.4 K. Besides, the “TM Shift LIMK2 (K)” value in assay [2] (setting [4]) is listed as 0.0 K; in assay [2] (LIMK2KD, compound 10 µM, single shot, listed as Roscovitine (Seliciclib,CYC202), 10 µM) it was -1.3 K.
With `Cn1cnc2c(F)c(Nc3ccc(Br)cc3Cl)c(C(=O)NOCCO)cc21` [Selumetinib (AZD6244), Selumetinib], the values for the ΔTm at 10 µM in assay [1] and in assay [2] (setting [3]) were 0.1 °C and 0.6 °C, respectively.
Taken in the same sequence, the figures for `O=C1c2ccc(Nc3ccc(F)cc3F)cc2CCc2ccc(OC[C@H](O)CO)cc21` [Skepinone-L] were -0.5 °C and -0.6 °C.
The like results for `C=CCN(/C=C1/C(=O)O[C@H](COC)[C@@]2(C)C1=C(O)C(=O)C1=C2[C@H](OC(C)=O)C[C@]2(C)C(=O)CC[C@@H]12)CC=C` [Sonolisib] were, in that order, 0.7 °C and 0.6 °C.
Turning to `CNC(=O)c1cc(Oc2ccc(NC(=O)Nc3ccc(Cl)c(C(F)(F)F)c3)cc2)ccn1` [Sorafenib Tosylate], in assay [1], the “TM Shift LIMK1 (K)” value was 1.7 K. Further, the ΔTm at 10 µM in assay [2] (read-out: TM Shift LIMK2 (K), LIMK2KD, compound 10 µM, single shot) worked out at 1.5 °C.
Consider `CN1CCN(c2nc(C3=C(c4c[nH]c5ccccc45)C(=O)NC3=O)c3ccccc3n2)CC1` [Sotrastaurin], for which the ΔTm at 10 µM in assay [1] came to 0.6 °C; in assay [2] (setting [3]) it was 1.2 °C.
In the case of `CN[C@@H]1C[C@H]2O[C@@](C)([C@@H]1OC)n1c3ccccc3c3c4c(c5c6ccccc6n2c5c31)C(=O)NC4` [Staurosporine], the results for the ΔTm at 10 µM in assay [1] and in assay [2] (read-out: TM Shift LIMK2 (K)) were 5.1 °C and 3.3 °C, respectively.
Turning to `CCN(CC)CCNC(=O)c1c(C)[nH]c(/C=C2\C(=O)Nc3ccc(F)cc32)c1C` [Sunitinib Malate], the “TM Shift LIMK1 (K)” value in assay [1] stood at 1.6 K. Besides, the “TM Shift LIMK2 (K)” value in assay [2] (setting [4]) is reported as 0.5 K.
Take `CCN(CC)CCNC(=O)c1c(C)[nH]c(/C=C2\C(=O)Nc3ccc(F)cc32)c1C` [Sunitinib]: in assay [1], the ΔTm at 10 µM amounted to 1.8 °C. Moreover, in assay [2] (setting [4]), the “TM Shift LIMK2 (K)” value is reported as -0.1 K.
On to `CNC(=O)c1ccccc1Nc1nc(Nc2ccc(N3CCOCC3)cc2OC)ncc1Cl` [TAE226 (NVP-TAE226)], for which the “TM Shift LIMK1 (K)” value in assay [1] was determined as 1.1 K. In addition, the “TM Shift LIMK2 (K)” value in assay [2] (setting [5]) is recorded as 3.3 K.
For the compound `CC(C)(O)CC(=O)NCCn1ccc2ncnc(Nc3ccc(Oc4cccc(C(F)(F)F)c4)c(Cl)c3)c21` [TAK-285], the ΔTm at 10 µM is -1.1 °C in assay [1] and 0 °C in assay [2] (setting [3]).
As for `N#Cc1c(Oc2ccc(F)c(NC(=O)Cc3cccc(C(F)(F)F)c3)c2)ccc2nc(NC(=O)C3CC3)sc12` [TAK-632], the “TM Shift LIMK1 (K)” value in assay [1] was found to be 1.3 K. The “TM Shift LIMK2 (K)” value in assay [2] (setting [5]) is 3.2 K.
Take `CCc1nc(-c2cccc(C)c2)c(-c2ccnc(NC(=O)c3ccccc3)c2)s1` [TAK-715]: the ΔTm at 10 µM is 0.4 °C in assay [1] and 2.6 °C in assay [2] (setting [3]).
For `Cn1c(=O)c(F)c(Nc2ccc(I)cc2F)c2c(=O)n(C[C@@H](O)CO)cnc21` [TAK-733], the ΔTm at 10 µM in assay [1] is -0.5 °C; in assay [2] (setting [3]), 0.3 °C.
Take `CCS(=O)(=O)c1cccc(-c2cc(C(=O)NC3CCN(C)CC3)c(C)c3[nH]c4ncc(C)cc4c23)c1` [TAK-901]: the ΔTm at 10 µM worked out at 3.7 °C in assay [1] and 0.3 °C in assay [2] (setting [3]).
For the compound `COc1ccc(C(=O)Nc2sc3c(c2C(N)=O)CCCC3)cc1OC` [TCS 359], the “TM Shift LIMK1 (K)” value in assay [1] was 1.3 K. Also, the “TM Shift LIMK2 (K)” value in assay [2] (setting [5]) is recorded as 1.1 K.
The like results for `CCN1/C(=C/C(C)=O)Sc2ccc(OC)cc21` [TG003] were, in that order, -1.0 K and -1.2 K.
The like results for `Nc1nc(N)c2nc(-c3cccc(O)c3)c(-c3cccc(O)c3)nc2n1` [TG100-115] were, in that order, 1.3 K and 2.4 K.
The like results for `Nc1nc(N)c2nc(-c3cccc(O)c3)cnc2n1` [TG100713] were, in that order, 1.4 K and 0.7 K.
